How the values were obtained:
porcine insulin = porcine insulin (Sus scrofa, UniProt P01315); assay: Stability of insulin in solution with chelating agent, reverse phase HPLC; type: physicochemical; conditions: pH 7.0 solution; for effect on stability of insulin (amount of insulin present as percentage of the original amount): 100 μM chelating agent, 4, 8 and 12 weeks
Procedure: A solution was prepared corresponding to that described in Example 1 containing porcine insulin and being pyrogen-free but not sterile. For comparative purposes a further solution was prepared in which the hydroxypyridone was replaced by the alternative chelating agent 3-hydroxy-2-methyl-4-pyrone.
The solutions were incubated at either 4° C. or 37° C. and the stability of the insulin was studied over a period of 12 weeks through use of the reverse phase HPLC method described by Seipke et al, Angew. Chem. Int. Ed. Engl., 1986, 25, 535-552 and by Grau, Diabetologia, 1985, 28, 458-463. The amount of insulin present in the solution at 4, 8 and 12 weeks was then calculated as a percentage of the original amount present.

insulin = assay: Investigation of chelating agents for stabilization of insulin; type: physicochemical

porcine insulin, sequence (P01315 25-54 limits assumed): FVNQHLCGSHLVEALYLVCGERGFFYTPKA
porcine insulin, sequence (P01315 88-108 limits assumed): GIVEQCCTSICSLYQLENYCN

| Structure (SMILES) | degradation of insulin over the whole period of 12 weeks (porcine insulin; incubated at 4° C., 100 μM chelating agent) | effect on stability of insulin (amount of insulin present as percentage of the original amount) (porcine insulin; incubated at 4° C.) | effect on stability of insulin (amount of insulin present as percentage of the original amount) (porcine insulin; incubated at 37° C.) | stabilizing effect on insulin (insulin) |
| --- | --- | --- | --- | --- |
| COCCn1ccc(=O)c(O)c1C [3-hydroxy-1-(2'-methoxyethyl)-2-methylpyrid-4-one] | no degradation was observed | stabilises insulin | stabilises insulin, to some extent | – |
| Cc1occc(=O)c1O [3-hydroxy-2-methyl-4-pyrone] | – | destabilises insulin | destabilises insulin | no stabilizing effect |
| O=C(O)CN(CCN(CC(=O)O)CC(=O)O)CC(=O)O [ethylene diamine tetra-acetic acid] | – | – | – | no stabilizing effect |

Reference: patent US5185319A, “Stabilization of organic compounds” (National Research Development Corporation, priority 1989, dated 1993)
